Source: patent US12383556B2, “Methods of treating Sjögren's syndrome using a Bruton's tyrosine kinase inhibitor” (NOVARTIS AG, priority 2019, dated 2025)
Read-outs that look alike come from different tables or passages of the source.

Key:
[1] = First-in-human Part 1 single ascending dose blood PK; assay type: in vivo
Experimental: A first-in-human study was conducted to assess the safety and tolerability, pharmacokinetics (PK) and pharmacodynamics (PD) of single and multiple doses of compound (I) both as once daily (qd) and twice daily (bid) oral administration in healthy volunteers and those with atopic diathesis, to support further clinical development of compound (I) in autoimmune diseases. This study also explored the effect of food intake.
(§1) First-in-human study in up to approximately 168 healthy volunteers (HVs), of which 64 (in Parts 2 & 4) had asymptomatic atopic diathesis. • Part 1 was a double-blind (subject and investigator blind, sponsor unblinded), placebo-controlled single ascending dose (SAD) escalation study of 10 cohorts (N=80) • Part 2 was a double-blind (subject and investigator blind, sponsor unblinded), placebo-controlled multiple ascending dose (MAD) (13 doses over 12 days) escalation study employing once daily dosing in 6 cohorts in healthy volunteers with asymptomatic atopic diathesis (N=48) • Part 3 was a single dose open-label crossover food effect study in 12 HVs • Part 4 was a double-blind (subject and investigator blind, sponsor unblinded), placebo-controlled multiple dose (25 doses over 12 days) study employing twice daily dosing in 2 cohorts of healthy volunteers with asymptomatic atopic diathesis (N=16)
In Part 1, subjects were admitted to the study site on Day −2 or −1 for baseline safety assessments and to confirm eligibility. Eligible subjects received a single dose of compound (I) or placebo under fasting conditions on Day 1. They were domiciled from Day −1 to the morning of Day 5 (96 hours post last drug administration).
Subjects were assigned to one of the following 10 cohorts. In each cohort, 8 subjects were randomized to either compound (I) or matching placebo in an overall 6:2 ratio. The first sub-cohort was randomized in a 1:1 ratio as one subject on compound (I) and one on matching placebo. The remaining 6 subjects per cohort, dosed after a 48-hour observation period of the initially dosed 2 subjects, were randomized in a 5:1 ratio. • Cohort 1: single oral dose of 0.5 mg compound (I) or matching placebo • Cohort 2: single oral dose of 1.5 mg compound (I) or matching placebo • Cohort 3: single oral dose of 5 mg compound (I) or matching placebo • Cohort 4: single oral dose of 15 mg compound (I) or matching placebo • Cohort 5: single oral dose of 30 mg compound (I) or matching placebo • Cohort 6: single oral dose of 60 mg compound (I) or matching placebo • Cohort 7: single oral dose of 100 mg compound (I) or matching placebo • Cohort 8: single oral dose of 200 mg compound (I) or matching placebo • Cohort 9: single oral dose of 400 mg compound (I) or matching placebo • Cohort 10: single oral dose of 600 mg compound (I) or matching placebo
Pharmacokinetic samples were obtained in blood and evaluated in all subjects at all dose levels. The samples from placebo subjects were not analyzed. The samples for PK assessments from subjects were collected at time points defined in the study. Compound (I) concentrations were determined in blood by a validated LC-MS/MS method.

[2] = First-in-human Part 4 multiple dose b.i.d. blood PK; assay type: in vivo
Text: as §1
In Parts 2 and 4, subjects were admitted on Day −2 or −1 for baseline safety assessments and to confirm eligibility. Eligible subjects received the first dose of compound (I) under fasting conditions on Day 1, and continued to take study medication under fasting conditions up to and including Day 12. Subjects were domiciled from Day −2 or −1 until the morning of Day 16, which equals 96 hours after the last dose of compound (I) was received. In Parts 2 and 4, the study medication was given once daily and twice daily respectively (details are found in the schedule of assessments).
Subjects were assigned to one of the following cohorts. In each cohort, 8 subjects were randomized to either Compound (I) or matching placebo in a 6:2 ratio. • Cohort 1: multiple oral doses of 100 mg Compound (I) or matching placebo in a bid regimen • Cohort 2: multiple oral doses of 200 mg Compound (I) or matching placebo in a bid regimen
Pharmacokinetic samples were obtained in blood and evaluated in all subjects at all dose levels. The samples from placebo subjects were not analyzed. […] Compound (I) concentrations were determined in blood by a validated LC-MS/MS method.

[3] = molecular target: T1, BTK (Homo sapiens, UniProt Q06187); assay: BTK occupancy in human whole blood (free and total BTK ELISA, MSD); assay type: in vivo
T1 construct: from tissue; host or cells: human whole blood (peripheral blood of dosed volunteers)
Experimental: Pharmacodynamics (PD) was characterized by assessing target occupancy and distal pathway inhibition. Measurements of BTK occupancy in human whole blood (derived as ratio of free and total BTK), served as direct marker of therapeutic target engagement.
Compound of formula (I) is an irreversible inhibitor of BTK, the extent and duration of BTK occupancy were determined.
The relationship between dose and pharmacodynamics was characterized by measurements of BTK occupancy in human blood (derived as ratio of free and total BTK), a direct marker of therapeutic target engagement. BTK occupancy was determined for single ascending doses ranging 0.5 to 400 mg, for q.d. multiple ascending doses ranging from of 10 mg and 400 mg, and for b.i.d. multiple ascending doses of 100 mg and 200 mg.

[4] = tested on: defined allergen response (wheal size); assay: Skin prick test (SPT) in healthy atopic subjects; assay type: in vivo, human; conditions: for dose at which reduction of wheal size in SPT started to plateau: multiple ascending dose, q.d.
Experimental: The ability of compound (I) to inhibit a defined allergen response has been evaluated by means of the skin prick test (SPT) in healthy atopic subjects in the MAD study part of the first in human study. SPT was performed prior to dosing (at screening, baseline and pre-dose on Day 1) and at different time points after the first dose (Day 1) and after 11 days of once daily dosing (Day 12).

[5] = Safety and tolerability in healthy volunteers (first-in-human study); assay type: in vivo; conditions: for overall safety assessment: dosing up to 600 mg (200 mg twice daily)
Experimental: Standard safety monitoring was used throughout all study parts. A dedicated assessment of potential skin bruising events were included. All vital signs, physical examination and subject history, ECGs, adverse events, and laboratory safety parameters (blood chemistry, hematology and urinalysis) up to 96 hours post last dose as well as PK data from the previous dose group (if available) up to 48 hours post last dose were to be reviewed in a blinded fashion for each cohort before dose escalation. Summary safety reports of reported adverse events, clinical safety laboratory parameters, QTc and heart rate were provided after completion of each dose level.
For the analysis of adverse effects, the Placebo subjects from all SAD and MAD cohorts (2 per cohort) and separated by the SAD and MAD parts were pooled into one Placebo group (n=20 for SAD and n=16 for MAD) to be compared with each single compound (I) dose group (n=6 each) and the total compound (I) group (n=60 for SAD and n=48 for MAD). There were no apparent major differences in the demographic data between placebo and the active groups both for the SAD and MAD populations.

[6] = after single dose, peripheral blood

T1 sequence (Q06187 whole entry): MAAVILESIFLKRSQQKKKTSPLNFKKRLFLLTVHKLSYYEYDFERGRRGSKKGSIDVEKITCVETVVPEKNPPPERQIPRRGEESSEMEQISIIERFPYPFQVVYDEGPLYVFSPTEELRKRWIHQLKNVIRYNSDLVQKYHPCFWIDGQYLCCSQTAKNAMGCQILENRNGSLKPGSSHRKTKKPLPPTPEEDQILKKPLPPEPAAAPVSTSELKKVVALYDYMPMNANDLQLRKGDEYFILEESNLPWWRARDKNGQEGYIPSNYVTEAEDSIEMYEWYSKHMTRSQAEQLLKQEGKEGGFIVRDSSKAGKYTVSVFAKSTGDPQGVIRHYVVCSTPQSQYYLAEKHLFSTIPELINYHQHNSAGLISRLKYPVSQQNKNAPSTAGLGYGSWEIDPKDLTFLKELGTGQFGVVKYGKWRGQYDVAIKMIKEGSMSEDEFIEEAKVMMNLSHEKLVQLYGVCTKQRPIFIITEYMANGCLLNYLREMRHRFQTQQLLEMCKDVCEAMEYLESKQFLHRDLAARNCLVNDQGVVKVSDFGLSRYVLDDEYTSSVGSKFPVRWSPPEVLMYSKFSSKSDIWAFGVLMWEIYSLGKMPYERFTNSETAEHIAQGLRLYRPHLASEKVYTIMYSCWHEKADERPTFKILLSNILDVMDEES

## C=CC(=O)N(C)CCOc1c(N)ncnc1-c1cc(F)cc(NC(=O)c2ccc(C3CC3)cc2F)c1C [Compound of Formula (I), N-(3-(6-Amino-5-(2-(N-methylacrylamido)ethoxy)pyrimidin-4-yl)-5-fluoro-2-methylphenyl)-4-cyclopropyl-2-fluorobenzamide]
[1]; human, blood, oral, single ascending doses, dose-independent, read-out: distribution phase T1/2 (converted)
  half-life: ~1 h
[1]; human, blood, oral, single ascending doses, read-out: mean residence time (MRT) in the circulation
  MRT: 1 to 5 h
[1]; human, blood, oral, single dose 100 mg, read-out: terminal half-life (converted)
  half-life: 4 h
[1]; human, blood, oral, single dose 600 mg, read-out: terminal half-life (converted)
  half-life: 18 h
[1]; single dose
  oral blood clearance CL/F, estimate across all cohorts: about 383 L/h
[2]; day 12
  increase of AUCtau from 100 mg to 200 mg b.i.d.: dose proportional increase
  increase of Cmax from 100 mg to 200 mg b.i.d.: 1.33 fold
[2]; human, blood, oral, b.i.d. regimen 100 mg and 200 mg
  Tmax: ~1 h
[3]; 10 mg q.d.
  BTK occupancy in blood: nearly complete
[3]; 10 mg q.d., pre-dose at day 12
  through BTK occupancy in blood: > 96%
[3]; [6]
  median BTK turnover T1/2: about 48 hours
  time to refresh BTK protein pool to pre-dose levels: about 10 days
[3]; in vivo
  duration of BTK occupancy in blood: > 24 h
[3]; peripheral blood
  time of peak target occupancy post dose: 0.5 h
[3]; single doses of 15 mg and above
  BTK occupancy at 24 h: above 80%
[3]; single doses of 15 mg and above, nearly all subjects
  peak target (BTK) occupancy: ~100%
[3]; single doses of 30 mg and higher
  duration of sustained BTK occupancy: > 24 h
[3]; single doses of 30 mg and higher, all subjects
  BTK occupancy (near-complete): > 90%
[4]; 10 mg q.d.
  inhibition of wheal size in SPT: minimal inhibition
[4]; listed as compound (I)
  dose at which reduction of wheal size in SPT started to plateau: around 100 mg
[4]; listed as compound of Formula (I)
  dose at which reduction of wheal size in SPT started to plateau: 100 mg
[5]; 0.5 mg to 600 mg, healthy volunteers
  serious or severe adverse events related to intake: no serious or severe adverse event
[5]; 0.5 mg to 600 mg, single dose or up to 18 days once or twice daily
  tolerability: well tolerated
[5]
  overall safety assessment: proven to be safe
[5]; listed as compound (I)
  overall safety assessment: does not reveal significant safety concerns
[5]; healthy volunteers
  nature of observed adverse events: generally mild in nature
